Assay results as given in patent publication US9695195B2, “5-HT3 receptor antagonists” (Takeda Pharmaceutical Company Limited, priority 2012, dated 2017).

Test system: subchronic PCP-induced impairment in cognition memory
Experiment: Rodent novel object recognition (NOR) assay in phencyclidine-induced cognitive deficits modeling schizophrenia
Type: in vivo, rat
Conditions: PCP-treated rats
Excerpt: The aim of this study was to investigate the ability of the compounds of the invention to improve subchronic PCP-induced impairment in cognition memory using the NOR task in the rat, a paradigm of relevance to cognition in schizophrenia. Adult male Sprague-Dawley rats (250-350 g; Harlan, USA) were used for the experiments. Animal were acclimated to the facility for 7 days prior to experimentation. Seven groups of 14 animals per group were used for the experiment. One group of animals received vehicle (0.9% saline twice daily) and the remaining six groups received PCP (2.5 mg/kg, s.c. twice daily) for 7 days, followed by 5-days drug free. On the test day, the animals were allowed to acclimate to the testing room for 30 min prior to initiation of experiments. Experiments were carried out in a white plexiglass chamber, designated as experimental arena. The arena was placed in a dark experimental room that was illuminated by a halogen lamp, providing a dim light to the arena.
Animals were placed in the arena for a 5 minute period to freely explore the test chamber in the absence of objects (habituation). Animals were then returned to their home cage immediately upon completion of habituation for a 120 min period. (1R,3R,5S)-8-Methyl-8-azabicyclo[3.2.1]octan-3-yl 1-(2,2,2-trifluoroethyl)-1H-indole-3-carboxylate (0.1, 1, 10 mg/kg s.c.), or vehicle (veh, saline) was administered 120 min prior to T1 and galantamine (5 mg/kg, i.p.) was administered 30 min prior to T1. Animals were returned to the arena which contained two identical objects (plastic balls) placed at one end of the arena (acquisition, T1), and allowed to explore for a 5 min period. The time spent exploring the two objects was recorded. Animals were once again returned to the home cage for a period of 120 min (ITI).
ITI was followed by the retention phase (T2) where one of the objects presented in the first trial was replaced by a novel object and animals were allowed to explore for an additional 5 min period. Again, the time spent exploring the two objects was recorded.
For the retention phase, the differences between the time spent exploring the familiar object and the novel object were examined. All sessions were recorded and scored blindly for the time exploring objects. Exploration is defined as touching the object or directing nose towards object at a distance less that 2 cm. A minimal exploration criterion was used such that only animals with exploration time of greater than 5 seconds per object were included.
Comparisons of all treatment groups were conducted using a one-way ANOVA followed by a Bonferroni's post hoc test for multiple comparisons.

| SMILES | discrimination between familiar and novel objects (0.1 mg/kg s.c.) | discrimination between familiar and novel objects (1 mg/kg s.c.) | discrimination between familiar and novel objects (10 mg/kg s.c.) | discrimination between familiar and novel objects (galantamine 5 mg/kg i.p., 2 h ITI) |
| --- | --- | --- | --- | --- |
| CN1[C@@H]2CC[C@H]1C[C@@H](OC(=O)c1cn(CC(F)(F)F)c3ccccc13)C2 | did not demonstrate a statistically significant discrimination | demonstrated a statistically significant discrimination | demonstrated a statistically significant discrimination |  |
| COc1ccc2c3c1O[C@H]1C[C@@H](O)C=C[C@@]31CCN(C)C2 [Galantamine, galantamine, reference compound] |  |  |  | statistically significant discrimination |
